From patent US5821232A, “Synergistic therapeutic compositions and methods” (Pfizer Inc., priority 1995, dated 1998)

What was measured:
[1] = tested on: Male Hartley guinea pigs; assay: Mean arterial pressure lowering in conscious sodium-depleted guinea pigs, i.v. dosing; assay type: in vivo, guinea pig; set-up: unit not given beside the values; conditions: trapezoidal method
Experimental: Male Hartley guinea pigs weighing between 250 and 300 g were obtained from Charles River Laboratories, Lakeview, New Jersey. The guinea pigs were allowed to acclimate to their environment for at least two weeks. Then, they were placed on a low sodium diet (Purina Modified Guinea Pig Chow, no sodium added) for 14 days and were given injections of furosemide (Lasix® 2 mg/kg, i.m.) on three non-consecutive days. At least 24 hours prior to experimentation, the animals were anesthetized with xylazine (Rompune, 10 mg/kg, s.c.) and ketamine (Vetalar®, 80 mg/kg, i.m.) and, using aseptic technique, cannulae (PE-50) were implanted into the aorta via the right carotid artery for direct measurement of mean arterial pressure (MAP). Cannulae (PE-50) were also placed into the left jugular vein for intravenous compound administration. Both catheters were exteriorized at the intrascapular region of the animal's back and flushed with a heparinized dextrose solution. To prevent the formation of clots, each cannula was filled with heparin at a concentration of 1000 units/ml. After surgery, an antibacterial, trimethoprim/sulfamethoxazole (Di-Trim®, 30 mg/kg, s.c.), was given to the animals. The animals were allowed to recover with water and no-sodium chow administered ad libitum. On the day of the experiment, each guinea pig was given an additional injection of furosemide (6 mg/kg, i.m.) to accelerate sodium loss and was placed in a sound-proof, ventilated box with one-way glass for observation. Mean arterial pressure was monitored with a Statham 23DB strain gauge pressure transducer previously calibrated using a mercury manometer. The arterial pressure waveform and derived heart rate were continuously recorded on a Grass Model 7D oscillograph. Arterial pressure waveform samples were obtained approximately every 20 seconds using an IBM PS/2 model 30 computer equipped with a custom algorithm designed to calculate mean arterial pressure from the integrated waveform. Values were obtained for a period of at least one hour prior to and 2 hours (usually 4 hours) after dosing. The test compounds were infused intravenously followed by a 250 μl flush with heparinized dextrose solution.
Dose response curves for the renin inhibitor (RI) (0.3 to 3.0 mg/kg, i.v.) and captopril (0.03 to 1.0 mg/kg, i.v.) were obtained (n =4 to 8) in order to quantitate baseline responses to each drug. In experiments where the renin inhibitor and captopril were co-administered, the renin inhibitor was given first immediately followed by captopril. Doses of renin inhibitor and angiotensin converting enzyme inhibitor, when given together, were chosen on the basis of causing submaximal hypotensive effects. Therefore, the contributory effect of each drug could be quantitated by integration and compared to the expected effect to determine whether additive or synergistic responses had occurred.
Employing the procedure described above, the changes in mean arterial pressure (AMAP) for the renin inhibitor (RI), the ACE inhibitor (captopril) and the renin inhibitor (RI), plus the ACE inhibitor (captopril) were obtained for various doses and are shown in Table I, below. The AOC-MAP is the area over the dose response curve for each dose calculated using the trapezoidal method.
The data in Table I were obtained by averaging the A MAP of all animals for each dose prior to calculating the AOC-MAP. When the data contained in Table I was reviewed for the purpose of calculating the AOC-MAP by averaging the area over the dose response curve for each animal per dose, it was discovered that the AOC-MAP for 0.5 mg/kg RI plus 0.05 mg/kg captopril inadvertently reflected the data based on only three of the six subject test animals. Shown below in Table II are the AOC-MAP data for the experiments reported in Table I, which data is now the result of determining the area over the dose response curve for each animal per dose and averaging the AOC-MAP, as well as determining the standard deviation. […]

[2] = Oldham et al., J. Cardiovasc. Pharmacol. 6: 672-677 (1984); cited from earlier work
[3] = Table I, 0.3 mg/kg i.v., area over curve from MAP change averaged over all animals per dose
[4] = Table I, 1.0 mg/kg i.v., area over curve from MAP change averaged over all animals per dose
[5] = Table II, 0.3 mg/kg i.v., average of area per animal (± standard deviation)
[6] = Table II, 1.0 mg/kg i.v., average of area per animal (± standard deviation)
[7] = Table III, 0.3 mg/kg i.v., average of area per animal
[8] = Table III, 1.0 mg/kg i.v., average of area per animal

C[C@H](CS)C(=O)N1CCC[C@H]1C(=O)O [captopril]
AOC-MAP ([1]; Table I, 0.03 mg/kg i.v., area over curve from MAP change averaged over all animals per dose): -99
AOC-MAP ([1]; Table I, 0.10 mg/kg i.v., area over curve from MAP change averaged over all animals per dose): -289
AOC-MAP [1, 3]: -1263
AOC-MAP [1, 4]: -3272
AOC-MAP ([1]; Table II, 0.03 mg/kg i.v., average of area per animal (± standard deviation)): -96 (±16)
AOC-MAP ([1]; Table II, 0.10 mg/kg i.v., average of area per animal (± standard deviation)): -283 (±24)
AOC-MAP [1, 5]: -1036 (±145)
AOC-MAP [1, 6]: -3272 (±350)
AOC-MAP ([1]; Table III, 0.03 mg/kg i.v., average of area per animal): -96 (±16)
AOC-MAP ([1]; Table III, 0.10 mg/kg i.v., average of area per animal): -269 (±18)
AOC-MAP [1, 7]: -826 (±128)
AOC-MAP [1, 8]: -3272 (±350)
hypotensive effect of captopril injection during H77 infusion [2]: small additional hypotensive effect

[alpha-R[alpha-R*, beta-S*(S*,S*)]-alpha-hydroxy-beta-[[2-[[2 -(4-morpholin-1-carboxamido)-1-oxo-3 -phenylpropyllaminol-3 -methylthio-l-oxo-propyl]amino]-cyclohexanebutanoic acid, isopropyl ester [RI]
AOC-MAP [1, 3]: -256
AOC-MAP [1, 4]: -496
AOC-MAP ([1]; Table I, 3.0 mg/kg i.v., area over curve from MAP change averaged over all animals per dose): -1829
AOC-MAP [1, 5]: -310 (±47)
AOC-MAP [1, 6]: -568 (±158)
AOC-MAP ([1]; Table II, 3.0 mg/kg i.v., average of area per animal (± standard deviation)): -1990 (±408)

CCCCc1nc(Cl)c(CO)n1Cc1ccc(-c2ccccc2-c2nn[nH]n2)cc1 [Dup 753]
AOC-MAP [1, 7]: -125 (±31)
AOC-MAP [1, 8]: -549 (±96)
AOC-MAP ([1]; Table III, 3.0 mg/kg i.v., average of area per animal): -1575 (±281)
